In brackets after ≈: the same amount, converted by molar mass.
Experiments:
[1] = tested on: Clinical MRSA strains; assay: MIC, broth dilution; assay type: cell-based, S. aureus; conditions: Staphylococcus aureus; Clinical MRSA strains (n = 5)
Method: (§1) Bacterial strains S. epidermidis ATCC 12228 (nonbiofilm forming), S. epidermidis ATCC 35984 (biofilm forming), S. aureus ATCC 49230, and S. aureus ATCC 25923 were from the American Type Culture Collection (ATCC, Manassas, USA) and were cultured in tryptic soy broth medium (TSB; Oxoid Ltd., Basingstoke, England). Ten clinical methicillin-resistant staphylococcal isolates, five MRSA isolates and five MRSE isolates, were collected from Huadong Teaching Hospital in Shanghai. Escherichia coli ATCC 25922 was grown in Luria-Bertani (LB) broth. The six compounds used in this study (H2-38, H2-39, H2-57, H2-60, H2-74, and H2-81) were screened from 56 derivatives of compound 2 in which the functional groups were modified, but the thiazolidine core structure was unchanged. The compounds were synthesized by Nanjing University of Technology. To generate the derivative compounds, halogen atoms were introduced into 4-thiazolidinone compounds that contained carboxylic acid moieties of phenoxy-acetic acid, (5-vinyl-furan-2-yl)-benzoic acid or (5-vinyl-thiophene-2-yl)-benzoic acid. The derivatives were dissolved in dimethyl sulfoxide (DMSO; Amresco, USA) to 200 mM for use as stock solutions.
(§2) MICs of the derivatives for S. epidermidis and S. aureus were determined by the broth dilution method according to the National Committee for Clinical Laboratory (NCCLS) recommendations (Turnidge and Bordash [2007]). Twofold dilutions of the derivatives in tubes containing 4 ml of Mueller-Hinton broth (MH, Sigma, Germany) were made to concentrations from 200 to 0.39 μM. Overnight cultures of the bacteria were adjusted to the 0.5 McFarland standards and inoculated 1:200 into the MH broth and then incubated at 37 °C for 16–20 h. The lowest concentration inhibiting visible growth of the bacteria was recorded as minimal inhibitory concentration (MIC).

[2] = Hemolytic activity; assay type: cell-based; conditions: healthy human erythrocytes, 5 % (v/v) suspension; for hemolysis at 1 h: at MIC
Method: The hemolytic activities of the derivatives on healthy human erythrocytes were also determined. Healthy human erythrocytes resuspended in normal saline (NS) at 5 % (v/v) were co-incubated with the derivatives at final concentrations of MIC, 4 × MIC, or 200 μM for 1 h at 37 °C in 96-well microtiter plates. The suspensions were centrifuged at 350 g for 10 min and the supernatant (100 μl) was transferred to new wells and measured at 570 nm on a spectrophotometer (Benchmark Microplate Reader; Bio-Rad, Hercules, CA, USA). The percentage of hemolysis was calculated by normalizing against the absorbance of erythrocytes treated with 1 % Triton X-100, which caused complete hemolysis; 0.1 % DMSO-treated cells were used as a control (Miyoshi et al. [1997]). The experiment was performed in quadruplicate wells and repeated independently three times.

[3] = tested on: S. epidermidis ATCC 35984; assay: MIC and MBC assays, broth dilution; assay type: cell-based; conditions: for MBC / MIC/MBC: S. epidermidis ATCC 35984; for MIC: ATCC35984, S. epidermidis ATCC 35984, MH broth
Method: as §2

[4] = tested on: Clinical MRSE strains; assay: MIC, broth dilution; assay type: cell-based, S. epidermidis; conditions: Staphylococcus epidermidis; Clinical MRSE strains (n = 5)
Method: as §1, §2

[5] = tested on: S. aureus ATCC 49230; assay: MIC, broth dilution; assay type: cell-based; conditions: Staphylococcus aureus, ATCC49230
Method: as §2

[6] = tested on: S. epidermidis ATCC 12228; assay: MIC, broth dilution; assay type: cell-based; conditions: Staphylococcus epidermidis, ATCC12228
Method: as §2

[7] = tested on: S. aureus ATCC 25923; assay: MIC, broth dilution; assay type: cell-based; conditions: Staphylococcus aureus, ATCC25923
Method: as §2

[8] = tested on: S. epidermidis ATCC 35984; assay: Derivatives combined with vancomycin or cefazolin (FIC index); assay type: cell-based; conditions: for MIC: Staphylococcus epidermidis, ATCC35984, line paired with vancomycin, read-out: MIC Derivative alone; for MIC Derivative alone: line paired with cefazolin
From the text: Combination antimicrobial therapy is widely used to take advantage of different mechanisms of action. It may potentiate the effect of individual antimicrobial agents by synergic action (Bijnsdorp et al. [2011]; Cokol et al. [2011]). The glycopeptide antibiotics, such as vancomycin, can bind the peptidoglycan side chains in the cell wall and prevent cross-linking during cell wall synthesis. Vancomycin has been considered to be one of the most reliable therapeutic agents against staphylococcal infections, but it is unable to clear biofilms even at high concentration (128 mg/l) (Climo et al. [1999]; Darouiche et al. [1994]; Tenover et al. [2001]). […] YycGF also plays an important role in the synthesis of peptidoglycan in B. subtilis and S. aureus (Bisicchia et al. [2007]; Dubrac and Msadek [2004]). In a preliminary study, we assessed the effects of the combined application of the derivatives with vancomycin and cefazolin against S. epidermidis ATCC 35984 according to the method of Odds ([2003]) (Cottagnoud et al. [2003]). […] No antagonism was observed between the derivatives and vancomycin or cefazolin (Table S1).
17 Table S1. The derivatives combined with vancomycin or cefazolin against S. epidermidis
Derivatives Antibiotics MIC (mg/L) FICIa Synergyb
Derivative Antibiotic In combination
alone alone (Derivative/Antibiotic)
19 a The FICI was calculated as FIC indexes= (MICderivative A in combination/MICderivative A
20 alone)+(MICantibiotic B in combination/MIC antibiotic B alone).
21 b The interaction between the two antibacterials is noted as follows: FIC index≤0.5,
22 Synergy (+); 0.5<FIC index≤4 (-), No interaction; FIC≥4.0, Antagonism.

[9] = tested on: mature (24-h-old) biofilms of S. epidermidis ATCC 35984; assay: Bacterial viability in mature biofilms by CLSM with Live/Dead staining; assay type: cell-based; conditions: 4 × MIC, 16 h, SYTO9/PI
Method: A diluted overnight culture of the bacteria was inoculated into cell culture glass bottom dishes (WPI, USA) and incubated at 37 °C for 24 h. […] The biofilms were washed with PBS and stained with SYTO9 and propidium iodide (PI), both of which were used at a concentration of 1 μM. SYTO9-stained live cells and PI-stained cells dead in biofilms were visualized by a Leica TCS SP5 confocal laser scanning microscope with a ×63 1.4-NA oil immersion objective. Three-dimensional biofilm images were created by IMARIS 7.0.0 software (Bitplane).

[10] = Staphylococcus epidermidis, ATCC35984
[11] = cefazolin combined with the labelled derivative
[12] = derivative combined with cefazolin
[13] = derivative combined with vancomycin
[14] = vancomycin combined with the labelled derivative

| SMILES | MIC [1] | hemolysis at 1 h, 200 µM [2] | hemolysis at 1 h [2] | MIC/MBC [3] | MBC [3, 10] | MIC [4] | MIC [5] | MIC [6] | MIC [7] | MIC [8] | MIC In combination: antibiotic [8, 11] | FICI ([8]; derivative + cefazolin) | FICI ([8]; derivative + vancomycin) | MIC In combination: derivative [8, 12] | MIC In combination: derivative [8, 13] | MIC Derivative alone [8] | MIC In combination: antibiotic [8, 14] | proportion of viable cells in mature biofilms [9] | other results |
| --- | --- | --- | --- | --- | --- | --- | --- | --- | --- | --- | --- | --- | --- | --- | --- | --- | --- | --- | --- |
| CCc1ccccc1/N=C1\S/C(=C\c2ccc(OCC(=O)O)c(OC)c2)C(=O)N1c1ccccc1CC [Compound 2, {2-{4-{3-(2-ethylphenyl)-2-[(2-ethylphenyl)imino]-4-oxothiazolidin-5-ylidene}methyl}-2-methoxyphenoxy}acetic acid] | 25 to 50 µM (≈ 12.9 to 25.8 µg/mL) | 5.24 ± 0.21% | 2.31 ± 0.35% | 1/4 | 100 µM (≈ 51.7 µg/mL) | 25 to 50 µM (≈ 12.9 to 25.8 µg/mL) | 50 µM (≈ 25.8 µg/mL) | 25 µM (≈ 12.9 µg/mL) | 50 µM (≈ 25.8 µg/mL) |  |  |  |  |  |  |  |  |  | MBC [3]: 100.0 µM (≈ 51.7 µg/mL); MIC ([3]; Staphylococcus epidermidis): 25 µM (≈ 12.9 µg/mL) |
| O=C(O)c1cccc(-c2ccc(C=C3SC(=Nc4ccc(Cl)cc4)N(c4ccc(Cl)cc4)C3=O)o2)c1 [H2-38, 3-{5-{{3-(4-chlorophenyl)-2-[(4-chlorophenyl)imino]-4-oxothiazolidin-5-ylidene}methyl}furan-2-yl}benzoic acid] | 1.5 to 3.1 µM (≈ 0.803 to 1.66 µg/mL) | 0.28 ± 0.03% | 0.14 ± 0.03% | 1/8 | 12.5 µM (≈ 6.69 µg/mL) | 1.5 to 3.1 µM (≈ 0.803 to 1.66 µg/mL) | 1.5 µM (≈ 0.803 µg/mL) | 1.5 µM (≈ 0.803 µg/mL) | 1.5 µM (≈ 0.803 µg/mL) | 0.8 µg/mL | 0.5 µg/mL | 0.56 | 0.63 | 0.4 µg/mL | 0.4 µg/mL | 0.8 µg/mL | 0.5 µg/mL | 42.3% |  |
| O=C(O)c1ccc(-c2ccc(C=C3SC(=Nc4ccc(Cl)cc4)N(c4ccc(Cl)cc4)C3=O)o2)cc1 [H2-39, 4-{5-{{3-(4-chlorophenyl)-2-[(4-chlorophenyl)imino]-4-oxothiazolidin-5-ylidene}methyl}furan-2-yl}benzoic acid] | 1.5 to 3.1 µM (≈ 0.803 to 1.66 µg/mL) | 0.41 ± 0.05% | 0.12 ± 0.03% | 1/8 | 12.5 µM (≈ 6.69 µg/mL) | 1.5 to 3.1 µM (≈ 0.803 to 1.66 µg/mL) | 1.5 µM (≈ 0.803 µg/mL) | 1.5 µM (≈ 0.803 µg/mL) | 1.5 µM (≈ 0.803 µg/mL) | 0.8 µg/mL | 0.25 µg/mL | 0.53 | 1.13 | 0.4 µg/mL | 0.8 µg/mL | 0.8 µg/mL | 0.5 µg/mL | 55.6% |  |
| O=C(O)c1ccc(-c2ccc(/C=C3\S/C(=N\c4ccccc4)N(c4ccc(Cl)cc4)C3=O)o2)cc1 [H2-57, 4-{5-{{3-(4-chlorophenyl)-2-[(4-phenyl)imino]-4-oxothiazolidin-5-ylidene}methyl}furan-2-yl}benzoic acid] | 1.5 to 3.1 µM (≈ 0.751 to 1.55 µg/mL) | 0.16 ± 0.04% | 0.14 ± 0.03% | 1/4 | 12.5 µM (≈ 6.26 µg/mL) | 1.5 to 3.1 µM (≈ 0.751 to 1.55 µg/mL) | 1.5 µM (≈ 0.751 µg/mL) | 3.1 µM (≈ 1.55 µg/mL) | 3.1 µM (≈ 1.55 µg/mL) | 1.7 µg/mL | 0.25 µg/mL | 0.53 | 1.13 | 0.85 µg/mL |  |  | 0.5 µg/mL | 17.1% | MIC ([3]; Staphylococcus epidermidis): ≤ 3.1 µM |
| O=C(O)c1ccc(-c2ccc(C=C3SC(=Nc4ccc(F)cc4)N(c4ccc(F)cc4)C3=O)s2)cc1 [H2-60, 4-{5-{{3-(4-fluorophenyl)-2-[(4-fluorophenyl)imino]-4-oxothiazolidin-5-ylidene}methyl}thiophene-2-yl}benzoic acid] | 1.5 to 3.1 µM (≈ 0.778 to 1.61 µg/mL) | 0.84 ± 0.03% | 0.52 ± 0.06% | 1/8 | 12.5 µM (≈ 6.48 µg/mL) | 1.5 to 3.1 µM (≈ 0.778 to 1.61 µg/mL) | 1.5 µM (≈ 0.778 µg/mL) | 1.5 µM (≈ 0.778 µg/mL) | 1.5 µM (≈ 0.778 µg/mL) | 1.7 µg/mL | 0.25 µg/mL | 0.53 | 0.56 | 0.85 µg/mL | 0.85 µg/mL |  | 0.25 µg/mL | 14% |  |
| O=C(O)COc1ccc(C=C2SC(=Nc3ccc(Cl)cc3)N(c3ccc(Cl)cc3)C2=O)cc1 [H2-74, 2-{4-{[3-(4-chlorophenyl)-2-[(4-chlorophenyl)imino]-4-oxothiazolidin-5-ylidene}methyl}phenoxy}acetic acid] | 3.1 to 6.3 µM (≈ 1.55 to 3.15 µg/mL) | 0.42 ± 0.03% | 0.14 ± 0.03% | 1/16 | 25 µM (≈ 12.5 µg/mL) | 3.1 to 6.3 µM (≈ 1.55 to 3.15 µg/mL) | 1.5 µM (≈ 0.749 µg/mL) | 1.5 µM (≈ 0.749 µg/mL) | 3.1 µM (≈ 1.55 µg/mL) | 0.8 µg/mL | 1 µg/mL | 0.63 | 0.38 | 0.4 µg/mL | 0.2 µg/mL | 0.8 µg/mL | 0.5 µg/mL | 32.5% |  |
| O=C(O)c1ccc(-c2ccc(/C=C3\S/C(=N\c4ccccc4)N(c4ccc(F)cc4)C3=O)s2)cc1 [H2-81, 4-{5-{{3-(4-fluorophenyl)-2-[(4-phenyl)imino]-4-oxothiazolidin-5-ylidene}methyl}thiophene-2-yl}benzoic acid] | 1.5 µM (≈ 0.751 µg/mL) | 0.1 ± 0.03% | 0.06 ± 0.09% | 1/4 | 6.3 µM (≈ 3.15 µg/mL) | 1.5 µM (≈ 0.751 µg/mL) | 1.5 µM (≈ 0.751 µg/mL) | 1.5 µM (≈ 0.751 µg/mL) | 1.5 µM (≈ 0.751 µg/mL) | 0.7 µg/mL | 1 µg/mL | 0.38 | 0.5 | 0.18 µg/mL | 0.18 µg/mL | 0.7 µg/mL | 1 µg/mL | 12.3% | interaction with vancomycin or cefazolin (in words) ([8]; S. epidermidis ATCC 35984, preliminary study): synergistic effect |
